# In patent publication US20230129485A1, “SYSTEM AND METHOD FOR DETERMINING MATERIAL PROPERTIES OF MOLECULAR SYSTEMS FROM AN AB-INITIO PARAMETERIZED FORCE-FIELD” (InterX, Inc., priority 2021, published 2023):
# Read-outs that look alike come from different tables or passages of the source.
# Assays:
# [1] = Free energy of hydration predicted with the QM-parameterized force field model (ARROW FF), classical MD and PIMD simulation in a water box; conditions: for Arrow error: Table 5, error of Arrow PIMD8 hydration free energy vs experiment; for Arrow PIMD8 Error: absolute error vs Exp (hydration)
# In short: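 Solute decoupled from solvent in a 32×32×32 Å3 water box (PME, 9 Å cutoffs), electrostatics, exchange-repulsion and dispersion switched off together over 15 lambda points with soft-coring. Steepest-descent minimization, 50 ps equilibration, 1 ns NPT production at 1 atm; classical and path-integral MD. Free energy from BAR and TI.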
# [2] = Free energy of solvation in cyclohexane predicted with the QM-parameterized force field model (ARROW FF), MD and PIMD; conditions: Table 4; for CHEX Arrow MD Error: error of MD cyclohexane solvation free energy vs experiment; for CHEX Arrow PIMD4 Error: error of PIMD4 cyclohexane solvation free energy vs experiment
# Description: Cyclohexane (CHEX) is nonpolar and equilibrates relatively quickly.
# Particle-Mesh Ewald (PME) algorithm was used to compute the electrostatic interactions. A 32×32×32 grid mesh and 5th power spline interpolation order can be used to compute the inverse PME sum. 9 Å cutoffs were used to compute the direct PME sum as well as the exchange and dispersion interactions. Bulk corrections were applied to account for distance cut-off of dispersion interactions. Solvation free energies were computed by decoupling the interactions between the solute and the solvent molecules. Electrostatic, exchange-repulsion and dispersion interactions were switched off simultaneously using a lambda-dependent scaling (a scaling factor power=2 was used) and a soft-coring algorithm (maximal soft-coring radius=1.5 Å, soft-coring radius scaling factor power=1). 15 lambda points unequally spaced (X=0, 0.05, 0.1, 0.2, 0.3, 0.4, 0.5, 0.6, 0.7, 0.75, 0.8, 0.85, 0.9, 0.95, 1.0) were used to decouple the solute-solvent intermolecular interactions.
# In some simulations of the QM-parameterized force field molecular simulation process, energy minimization (10,000 steps) using the steepest descent algorithm was initially performed on all the simulation systems. This was followed by a 50 ps equilibration and 1 ns production runs in the isothermal-isobaric ensemble (NPT). […] Pressure was maintained at 1 atm using a MTTK barostat (relaxation time=5 ps). A Multiple Time Step (MTS) algorithm was used to integrate the equations of motion both for the classical and path-integral runs. […] The calculations were performed using the QM-parameterized force field model.
# Using the QM-parameterized force field model, the QM-parameterized force field device can compute or predict the solvation free energies using both the Bennett acceptance ratio (BAR) and thermodynamic integration (TI) method with <dH/dλ> values interpolated by cubic splines.
# [3] = Free energy of hydration predicted by General Amber Force Field (GAFF), from literature; conditions: Table 5; error of GAFF hydration free energy vs experiment
# [4] = Free energy of hydration predicted by polarizable AMOEBA force field, from literature; conditions: Table 5; error of AMOEBA hydration free energy vs experiment
# [5] = Free energy of hydration by COSMO implicit solvent model (MolPro ver. 2012); conditions: absolute error vs Exp (hydration)
# In short: (§1)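 COSMO solvation free energies were calculated for the molecule set with MolPro because no original-COSMO free energy data were available. SMD and PCM hydration free energies were obtained as received. SMD, PCM and COSMO-RS values cover only molecules that overlap with those computed using the QM-parameterized force field model.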
# [6] = Free energy of hydration by Solvation Model Dielectric (SMD) implicit solvent model; conditions: absolute error vs Exp (hydration)
# In short: as §1
# [7] = Free energy of hydration by Polarizable Continuum Model (PCM); conditions: absolute error vs Exp (hydration)
# In short: as §1
# [8] = Free energy of hydration by COSMO-RS
# In short: as §1
# [9] = experimental, cited from earlier work; for Exp (hydration): Table 5
# [10] = experimental, cited from earlier work
# [11] = Table 5; free energy of hydration, GAFF prediction taken from literature; cited from earlier work
# [12] = Table 5; free energy of hydration, AMOEBA prediction taken from literature; cited from earlier work
# [13] = implicit solvent model, values received; cited from earlier work
# [14] = implicit solvent model, values received; cited from earlier work; remark: listed apart in the source
# [15] = CHEX/H2O partition coefficient (log D) predicted with the QM-parameterized force field model (ARROW FF)
# In short: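 Cyclohexane/water partition coefficients were predicted by molecular simulation with a QM-parameterized force field, with bonded force constants and equilibrium values fitted to MP2/aug-cc-pVTZ energies. Solutes carried neutral functional groups, and results from four independent groups were averaged.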
# [16] = CHEX/H2O partition coefficient, experimental, cited from earlier work; for Exp (log D): Table 3; for logD Exp (logD): Table 4
# [17] = Table 3, absolute error of MD hydration free energy vs experiment
# [18] = Table 3, absolute error of PIMD8 hydration free energy vs experiment
# [19] = Table 4, error of MD hydration free energy vs experiment
# [20] = Table 4, error of PIMD8 hydration free energy vs experiment
# [21] = Table 3, free energy of hydration
# [22] = Table 4, neutral amino-acid analogues
# [23] = Table 3, free energy of solvation in cyclohexane
# [24] = Table 4, solvation free energy in cyclohexane
Compound,"water Arrow MD Error [1, 17] [kcal/mol]","water Arrow PIMD8 Error [1, 18] [kcal/mol]","water Arrow MD Error [1, 19] [kcal/mol]","water Arrow PIMD8 Error [1, 20] [kcal/mol]",Arrow error [1] [kcal/mol],Arrow PIMD8 Error [1] [kcal/mol],CHEX Arrow MD Error [2] [kcal/mol],CHEX Arrow PIMD4 Error [2] [kcal/mol],GAFF error [3] [kcal/mol],AMOEBA error [4] [kcal/mol],COSMO/Molpro Error [5] [kcal/mol],SMD Error [6] [kcal/mol],PCM Error [7] [kcal/mol],"water Exp (hydration) [9, 21] [kcal/mol]","water Exp (hydration) [9, 22] [kcal/mol]",Exp (hydration) ([9]; free energy of hydration) [kcal/mol],"CHEX Exp (solvation) [10, 23] [kcal/mol]","CHEX Exp (solvation) [10, 24] [kcal/mol]",GAFF [11] [kcal/mol],AMOEBA [12] [kcal/mol],also measured
CC(N)=O [Acetamide],0.87,0.06,0.87,0.06,0.06,0.06,0.63,0.58,1.91,0.41,4.11,0.71,2.81,-9.71,-9.71,-9.71,-3.01,-3.01,-7.80,-9.30,COSMO-RS error [8]: 2.55 kcal/mol; SMD free energy of hydration [13]: -9.00 kcal/mol; PCM free energy of hydration [14]: -6.90 kcal/mol
CC(=O)O [AceticAcid],0.19,0.34,0.19,0.34,0.34,0.34,0.09,0.01,0.74,1.06,2.47,0.99,2.19,-6.69,-6.69,-6.69,-2.20,-2.20,-5.95,-5.63,COSMO-RS error [8]: 0.22 kcal/mol; SMD free energy of hydration [13]: -5.70 kcal/mol; PCM free energy of hydration [14]: -4.50 kcal/mol
CCSC [EthylMethylSulfide],0.47,0.11,0.47,0.11,0.11,0.11,0.83,0.51,1.84,0.48,2.70,–,–,-1.5,-1.5,-1.50,-3.78,-3.78,0.34,-1.98,log D Arrow MD Error [15]: 0.27; log D Arrow PIMD Error [15]: 0.29; logD Arrow MD Error [15]: 0.27; logD Arrow PIMD Error [15]: 0.29; Exp (log D) [16]: 1.67; logD Exp (logD) [16]: 1.67
CS [MethaneThiol],0.79,0.43,0.79,–,0.43,0.43,0.39,0.30,0.41,0.98,2.71,0.42,0.88,-1.219,-1.219,-1.24,–,-2.46,-0.83,-0.26,"logD Arrow MD Error ([15]; Table 4, error of MD logD vs experiment): 0.29; logD Arrow PIMD Error ([15]; Table 4, error of PIMD logD vs experiment): 0.09; Exp (hydration) free energy of hydration [9]: -1.22 kcal/mol; SMD free energy of hydration [13]: -0.80 kcal/mol; PCM free energy of hydration [14]: -2.10 kcal/mol; logD Exp (logD) [16]: 0.91"
CO [Methanol],0.28,0.35,0.28,0.35,0.33,0.35,0.42,0.24,0.74,0.32,1.37,0.91,1.91,–,–,–,-1.29,-1.29,-4.37,-4.79,log D Arrow MD Error [15]: 0.10; log D Arrow PIMD Error [15]: 0.43; logD Arrow MD Error [15]: 0.10; logD Arrow PIMD Error [15]: 0.43; COSMO-RS error [8]: 0.18 kcal/mol; Exp (log D) [16]: −2.80; logD Exp (logD) [16]: −2.80
Cc1ccccc1 [Toluene],0.83,0.10,0.83,0.10,0.10,0.10,0.94,0.62,0.18,0.64,2.41,0.59,0.71,-0.89,-0.89,-0.89,-4.90,-4.90,-0.71,-1.53,COSMO-RS error [8]: 0.12 kcal/mol; SMD free energy of hydration [13]: -0.30 kcal/mol; PCM free energy of hydration [14]: -1.60 kcal/mol
